For the first assay, the target named is T1, chimeric human H3 receptor (Homo sapiens, UniProt Q9Y5N1).
T1 construct: made in house; host or cells: Sf9 insect cells (baculovirus); P2 membrane preparation
T1 sequence (Q9Y5N1 with tags, fused parts or gaps): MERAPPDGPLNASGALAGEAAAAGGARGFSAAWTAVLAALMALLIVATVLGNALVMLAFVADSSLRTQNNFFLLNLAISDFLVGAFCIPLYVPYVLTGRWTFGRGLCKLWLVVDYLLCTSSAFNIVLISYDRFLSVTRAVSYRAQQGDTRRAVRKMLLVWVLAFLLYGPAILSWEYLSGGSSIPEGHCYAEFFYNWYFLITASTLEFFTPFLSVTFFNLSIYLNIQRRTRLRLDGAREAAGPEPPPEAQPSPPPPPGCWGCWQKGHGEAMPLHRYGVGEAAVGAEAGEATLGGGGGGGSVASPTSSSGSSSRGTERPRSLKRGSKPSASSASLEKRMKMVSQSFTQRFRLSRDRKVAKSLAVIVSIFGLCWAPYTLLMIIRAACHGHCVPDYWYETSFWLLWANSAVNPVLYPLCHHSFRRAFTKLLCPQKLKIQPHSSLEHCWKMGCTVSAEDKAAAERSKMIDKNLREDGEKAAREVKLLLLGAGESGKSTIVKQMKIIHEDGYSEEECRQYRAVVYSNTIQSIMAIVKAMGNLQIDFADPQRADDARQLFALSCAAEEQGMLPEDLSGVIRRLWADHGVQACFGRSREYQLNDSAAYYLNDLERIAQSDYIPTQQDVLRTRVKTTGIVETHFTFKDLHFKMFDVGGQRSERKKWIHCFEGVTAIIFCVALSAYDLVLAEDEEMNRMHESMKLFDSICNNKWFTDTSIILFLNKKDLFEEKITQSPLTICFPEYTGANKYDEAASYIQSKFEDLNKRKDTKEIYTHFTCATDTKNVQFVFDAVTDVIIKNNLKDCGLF
The assay is described as follows: Chimeric human H3 receptor GTP binding assay (agonist-stimulated GTP-gamma35S binding, Example 7). In kind it is biochemical. As to conditions: Table I; P2 membranes of Sf9 cells, 1 μM histamine as agonist, Ki from IC50 by Cheng-Prusoff. The method in brief: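 Sf9 membranes co-expressing chimeric human H3 receptor and heterotrimeric G-protein, 35 μg/tube, in pH 7.4 Tris buffer with 10 μM GDP. Test compounds (10^−10–10^−6 M) competed against 1 μM histamine, […] GTP-gamma35S, 60 min at room temperature. Filter-bound radioactivity counted; IC50 converted to Ki by Cheng-Prusoff. Agonism/inverse agonism tested without histamine (EC50).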
(GTPγS resists hydrolysis and so accumulates on activated G proteins.)
As to `CNC(=O)c1ccc(-c2ccc3c(c2)CCN(CC(=O)N2CCN(C4CCC4)CC2)C3)cc1` [Compound 72, 4-{2-[2-(4-cyclobutylpiperazin-1-yl)-2-oxoethyl]-1,2,3,4-tetrahydroisoquinolin-6-yl}-N-methylbenzamide], the Ki (usually the equilibrium dissociation constant of an inhibitor or competing ligand from its target) is less than 1000 nM. As to `CC(C)N1CCN(C(=O)CN2CCc3ccccc3C2c2ccccc2F)CC1` (centres unmarked) [Compound 58, 1-(2-fluorophenyl)-2-[2-(4-isopropylpiperazin-1-yl)-2-oxoethyl]-1,2,3,4-tetrahydroisoquinoline], the Ki is less than 1000 nM. In the case of `O=C(CN1CCn2ccnc2C1)N1CCN(C2CCC2)CC1` [Compound 83, 7-[2-(4-cyclobutylpiperazin-1-yl)-2-oxoethyl]-5,6,7,8-tetrahydroimidazo[1,2-a]pyrazine], the Ki is less than 1000 nM. Same read-out and setting: under `COc1cc2c(cc1OC)CN(CC(=O)N1CCN(C3CCCCC3)CC1)CC2` [Compound 50, 2-[2-(4-cyclohexylpiperazin-1-yl)-2-oxoethyl]-6,7-dimethoxy-1,2,3,4-tetrahydroisoquinoline] stands less than 1000 nM.

In the case of `CCC(=O)c1ccc2c(c1)CCN(CC(=O)N1CCN(C3CCC3)CC1)C2` [Compound 73, 1-{2-[2-(4-cyclobutylpiperazin-1-yl)-2-oxoethyl]-1,2,3,4-tetrahydroisoquinolin-6-yl}propan-1-one], the inhibition constant (Ki) is less than 1000 nM. Same read-out and setting: under `CCC1c2ccccc2CCN1CC(=O)N1CCN(C(C)C)CC1` (centres unmarked) [Compound 56, 1-ethyl-2-[2-(4-isopropylpiperazin-1-yl)-2-oxoethyl]-1,2,3,4-tetrahydroisoquinoline] stands less than 1000 nM.

Staying with this assay, now noted: Table II "Ki", symbol *; assay of Example 7.
In the case of `CC(C)c1ccc(-c2ccc3c(c2)CCN(CC(=O)N2CCN(C4CCC4)CC2)C3)nc1` [Compound 647, 2-[2-(4-cyclobutylpiperazin-1-yl)-2-oxoethyl]-6-(5-isopropylpyridin-2-yl)-1,2,3,4-tetrahydroisoquinoline], the Ki was less than 1000 nM.

As to `COCC1CCN(c2ccc3c(n2)CCN(CC(=O)N2CCN(C4CCC4)CC2)C3)CC1` [Compound 673, 6-[2-(4-cyclobutylpiperazin-1-yl)-2-oxoethyl]-2-[4-(methoxymethyl)piperidin-1-yl]-5,6,7,8-tetrahydro-1,6-naphthyridine], the Ki was less than 1000 nM.

For the compound `COc1cccc(-c2ccc3c(c2)CCN(CC(=O)N2CCN(C4CCC4)CC2)C3)n1` [Compound 633, 2-[2-(4-cyclobutylpiperazin-1-yl)-2-oxoethyl]-6-(6-methoxypyridin-2-yl)-1,2,3,4-tetrahydroisoquinoline], the Ki was less than 1000 nM.

For the compound `CN(C)c1ccc(-c2ccc3c(c2)CCN(CC(=O)N2CCN(C4CCCC4)CC2)C3)cc1` [Compound 533, 4-{2-[2-(4-cyclopentylpiperazin-1-yl)-2-oxoethyl]-1,2,3,4-tetrahydroisoquinolin-6-yl}-N,N-dimethylaniline], the Ki is less than 1000 nM.

Regarding `CN(C)Cc1ccccc1-c1ccc2c(c1)CCN(CC(=O)N1CCN(C3CCC3)CC1)C2` [Compound 640, 1-(2-{2-[2-(4-cyclobutylpiperazin-1-yl)-2-oxoethyl]-1,2,3,4-tetrahydroisoquinolin-6-yl}phenyl)-N,N-dimethylmethanamine], the inhibition constant (Ki) was less than 1000 nM.

In the case of `CCC(CC)Nc1ccc2c(n1)CCN(CC(=O)N1CCN(C3CCC3)CC1)C2` [Compound 662, 6-[2-(4-cyclobutylpiperazin-1-yl)-2-oxoethyl]-N-(1-ethylpropyl)-5,6,7,8-tetrahydro-1,6-naphthyridin-2-amine], the Ki was less than 1000 nM. For `CCOCCNc1ccc2c(n1)CCN(CC(=O)N1CCN(C3CCC3)CC1)C2` [Compound 667, 6-[2-(4-cyclobutylpiperazin-1-yl)-2-oxoethyl]-N-(2-ethoxyethyl)-5,6,7,8-tetrahydro-1,6-naphthyridin-2-amine], the Ki was less than 1000 nM.

Staying with this assay, now noted: Table II; "*" = Ki in assay of Example 7 less than 1 micromolar.
Take `Cn1cc(-c2ccc3c(c2)CCN(CC(=O)N2CCN(C4CCC4)CC2)C3)cnc1=O` [Compound 266, 5-{2-[2-(4-cyclobutylpiperazin-1-yl)-2-oxoethyl]-1,2,3,4-tetrahydroisoquinolin-6-yl}-1-methylpyrimidin-2(1H)-one]: the Ki was less than 1000 nM. Still for that read-out and setting: under `N#Cc1ccc(-n2cc3c(n2)CCN(CC(=O)N2CCN(C4CCC4)CC2)C3)nn1` [Compound 203, 6-{5-[2-(4-cyclobutylpiperazin-1-yl)-2-oxoethyl]-4,5,6,7-tetrahydro-2H-pyrazolo[4,3-c]pyridin-2-yl}pyridazine-3-carbonitrile] stands less than 1000 nM; under `CS(=O)(=O)c1ccc(-c2nc3c(s2)CCN(CC(=O)N2CCN(C4CCC4)CC2)C3)cc1` [Compound 105, 5-[2-(4-cyclobutylpiperazin-1-yl)-2-oxoethyl]-2-[4-(methylsulfonyl)phenyl]-4,5,6,7-tetrahydro[1,3]thiazolo [4,5-c]pyridine], less than 1000 nM; under `CC(=O)c1ccc(-n2cc3c(n2)CCN(CC(=O)N2CCN(C4CCC4)CC2)C3)nc1` [Compound 96, 1-(6-{5-[2-(4-cyclobutylpiperazin-1-yl)-2-oxoethyl]-4,5,6,7-tetrahydro-2H-pyrazolo[4,3-c]pyridin-2-yl}pyridin-3-yl)ethanone], less than 1000 nM. The same measure, in the same setting: under `CNC(=O)c1ccc2c(c1)CCN(CC(=O)N1CCN(C3CCC3)CC1)C2` [Compound 85, 2-[2-(4-cyclobutylpiperazin-1-yl)-2-oxoethyl]-N-methyl-1,2,3,4-tetrahydroisoquinoline-6-carboxamide] stands less than 1000 nM; under `CC1CCCC1N1CCN(C(=O)CN2CCc3nc(N4CCCC4)ncc3C2)CC1` (centres unmarked) [Compound 218, 6-{2-[4-(2-methylcyclopentyl)piperazin-1-yl]-2-oxoethyl}-2-pyrrolidin-1-yl-5,6,7,8-tetrahydropyrido[4,3-d]pyrimidine], less than 1000 nM. Same read-out and setting: under `CC1CCC[C@H]2CN(C(=O)CN3CCc4nc(N5CCC(F)(F)CC5)ccc4C3)CCN12` (stereo in doubt) [Compound 180, 2-(4,4-difluoropiperidin-1-yl)-6-[2-(6-methyloctahydro-2H-pyrido[1,2-a]pyrazin-2-yl)-2-oxoethyl]-5,6,7,8-tetrahydro-1,6-naphthyridine] stands less than 1000 nM; under `O=C(CN1CCc2sc(Br)nc2C1)N1CCN(C2CCC2)CC1` [Compound 108, 2-bromo-5-[2-(4-cyclobutylpiperazin-1-yl)-2-oxoethyl]-4,5,6,7-tetrahydro[1,3] thiazolo [4,5-c]pyridine], less than 1000 nM. Turning to `CCn1cc(-c2ccc3c(c2)CCN(CC(=O)N2CCN(C4CCC4)CC2)C3)ccc1=O` [Compound 280, 5-{2-[2-(4-cyclobutylpiperazin-1-yl)-2-oxoethyl]-1,2,3,4-tetrahydroisoquinolin-6-yl}-1-ethylpyridin-2(1H)-one], the Ki is less than 1000 nM. Same read-out and setting: under `O=C(CN1CCc2nn(-c3ccc(C(F)(F)F)cc3)cc2C1)N1CCN(C2CCC2)CC1` [Compound 237, 5-[2-(4-cyclobutylpiperazin-1-yl)-2-oxoethyl]-2-[4-(trifluoromethyl)phenyl]-4,5,6,7-tetrahydro-2H-pyrazolo[4,3-c]pyridine] stands less than 1000 nM; under `Cc1c2c(nn1-c1ccc(C#N)cn1)CCN(CC(=O)N1CCN(C3CCC3)CC1)C2` [Compound 274, 6-{5-[2-(4-cyclobutylpiperazin-1-yl)-2-oxoethyl]-3-methyl-4,5,6,7-tetrahydro-2H-pyrazolo[4,3-c]pyridin-2-yl}nicotinonitrile], less than 1000 nM.

Regarding `O=C(CN1CCc2cc(N3CCOC3=O)ccc2C1)N1CCN(C2CCC2)CC1` [Compound 210, 3-{2-[2-(4-cyclobutylpiperazin-1-yl)-2-oxoethyl]-1,2,3,4-tetrahydroisoquinolin-6-yl}-1,3-oxazolidin-2-one], the Ki was less than 1000 nM.

Staying with this assay, now noted: assay of Example 7; "*" in Ki of Table II.
For the compound `Cc1cc(-c2nc3c(s2)CN(CC(=O)N2CCN(C4CCC4)CC2)CC3)ccc1F` [Compound 303, 5-[2-(4-cyclobutylpiperazin-1-yl)-2-oxoethyl]-2-(4-fluoro-3-methylphenyl)-4,5,6,7-tetrahydro[1,3]thiazolo [5,4-c]pyridine], the Ki was less than 1000 nM.

As to `COc1cccc(OC)c1-c1nc2c(s1)CN(CC(=O)N1CCN(C3CCC3)CC1)CC2` [Compound 361, 5-[2-(4-cyclobutylpiperazin-1-yl)-2-oxoethyl]-2-(2,6-dimethoxyphenyl)-4,5,6,7-tetrahydro[1,3]thiazolo [5,4-c]pyridine], the Ki is less than 1000 nM. Still for that read-out and setting: under `COc1cccc(-c2ccc3c(c2)CCN(CC(=O)N2CCN(C4CCCC4)CC2)C3)c1` [Compound 476, 2-[2-(4-cyclopentylpiperazin-1-yl)-2-oxoethyl]-6-(3-methoxyphenyl)-1,2,3,4-tetrahydroisoquinoline] stands less than 1000 nM. In the case of `Cc1ccc(-n2ncc3c2CN(CC(=O)N2CCN(C4CCC4)CC2)CC3)nn1` [Compound 284, 6-[2-(4-cyclobutylpiperazin-1-yl)-2-oxoethyl]-1-(6-methylpyridazin-3-yl)-4,5,6,7-tetrahydro-1H-pyrazolo[3,4-c]pyridine], the Ki is less than 1000 nM.

For the compound `Cc1ccc(-c2nc3c(s2)CN(CC(=O)N2CCN(C4CCC4)CC2)CC3)c(F)c1` [Compound 301, 5-[2-(4-cyclobutylpiperazin-1-yl)-2-oxoethyl]-2-(2-fluoro-4-methylphenyl)-4,5,6,7-tetrahydro[1,3]thiazolo [5,4-c]pyridine], the Ki is less than 1000 nM. As for `COc1ccc(-c2nc3c(s2)CN(CC(=O)N2CCN(C4CCC4)CC2)CC3)cc1OC` [Compound 329, 5-[2-(4-cyclobutylpiperazin-1-yl)-2-oxoethyl]-2-(3,4-dimethoxyphenyl)-4,5,6,7-tetrahydro[1,3]thiazolo [5,4-c]pyridine], the Ki is less than 1000 nM. In the case of `CCOc1ccccc1-c1nc2c(s1)CN(CC(=O)N1CCN(C3CCC3)CC1)CC2` [Compound 341, 5-[2-(4-cyclobutylpiperazin-1-yl)-2-oxoethyl]-2-(2-ethoxyphenyl)-4,5,6,7-tetrahydro[1,3]thiazolo [5,4-c]pyridine], the Ki is less than 1000 nM.

The values are drawn from patent US20110082130A1 (LIGAND PHARMACEUTICALS, INC., priority 2006, published 2011).
